Test: wn = mass fraction of the nth substance listed
Conditions: Liquid

NCC(=O)[O-].[Na+] [sodium glycinate] + O
mass density [kg/m3]
Conditions	298.15 K	313.15 K	323.15 K	333.15 K	343.15 K	353.15 K
w1 = 0.01	1011.96	1002	–	996.72	990.16	985.36
w1 = 0.05	1015.92	1010.56	1005.12	1000.12	993.24	987.2
w1 = 0.1	1034.52	1029.68	1022.56	1017.56	1010.76	1005.32
w1 = 0.15	1055.6	1048.32	1042.92	1036.72	1030.08	1023.64
w1 = 0.2	1083.52	1076.44	1071	1066.48	1061.2	1054.48
w1 = 0.3	1130.4	1118	1112.76	1107.48	1101.44	1094.52

Reference: the NIST ThermoML archive (doi:10.1021/je800672r)
